{
  "source": "patent US7803825B2",
  "about": "“Aminoalkylazole derivatives as histamine-3 antagonists” (Wyeth LLC, priority 2007, dated 2010)",
  "note": "Where a name gives a salt, the structure may show the parent alone.",
  "data": [
    {"molecular_target": "T1, histamine-3 (H3) receptor (Homo sapiens, UniProt Q9Y5N1)", "T1 construct": "expressed in transfected cells; host or cells: HEK293T", "T1 sequence (Q9Y5N1 whole entry)": "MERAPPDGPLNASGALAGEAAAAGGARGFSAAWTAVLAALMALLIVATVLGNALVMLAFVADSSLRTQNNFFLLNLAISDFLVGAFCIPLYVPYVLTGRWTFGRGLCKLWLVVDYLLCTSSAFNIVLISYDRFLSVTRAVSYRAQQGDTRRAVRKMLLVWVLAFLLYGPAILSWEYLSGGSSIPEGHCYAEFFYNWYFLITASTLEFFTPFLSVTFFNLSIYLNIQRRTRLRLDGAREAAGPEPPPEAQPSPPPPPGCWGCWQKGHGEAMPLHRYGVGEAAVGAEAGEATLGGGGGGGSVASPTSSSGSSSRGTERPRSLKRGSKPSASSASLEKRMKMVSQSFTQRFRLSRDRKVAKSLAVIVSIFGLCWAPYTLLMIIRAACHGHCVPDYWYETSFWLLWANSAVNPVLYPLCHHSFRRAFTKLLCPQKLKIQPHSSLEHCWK", "experiment": "Methyl Histamine Binding in Human Histamine-3 Receptor Cell Line", "details": "membranes of stably transfected HEK293T cells, radioligand 1 nM, Ki from IC50 by Cheng-Prusoff", "experimental": "Evaluation of Methyl Histamine Binding in Human Histamine-3 Receptor Cell Line\nThe affinity of test compounds for the histamine-3 (H3) receptor is evaluated in the following manner. Stably transfected HEK293T cells are grown in DMEM containing 10% heat inactivated FBS and G-418 (500 ug/ml). Cells are scraped from the plate, transferred to centrifuge tubes, washed one time in PBS by centrifugation in a Sorvall RT7 Plus centrifuge (2000 rpm 10 minutes, 4° C.). The resulting pellets are stored at 80° C. until ready for use. Cells are re-suspended in buffer (50 mM Tris pH=7.5) and placed in a Dounce homogenizer, douncing ten times to homogenize cells. The homogenate is spun down by centrifugation (Sorvall RT7 Plus, 1800 rpm 10 minutes, 4° C.). The supernatant is placed in a Corex tube and spun down by centrifugation (Sorvall RC 5c Plus, 17,000 rpm 20 minutes, 4° C.). The pellet is resuspended in buffer (50 mM Tris, pH 7.5). Protein concentration (ug/ul) is determined using the Micro-BCA Protein Determination. The binding assay is set up in a 96 well microtiter plate in a total volume of 250 uL. Non-specific binding is determined in the presence of 10 uM clobenpropit. The final radioligand concentration is 1 nM. The test compound is serially diluted using the Beckman Biomek2000 to a final approximate range of 100 uM to 100 pM. Membranes are suspended in buffer, homogenized in 2 bursts of ten seconds using a Vitris mechanical homogenizer set at power setting 5. Ten μg of membranes are added to each well. Following a one hour incubation at 30° C., the reaction is terminated by the addition of ice cold buffer and rapid filtration with a Packard Filtermate Harvester through a GF/B filter pre-soaked with 1% PEI for one hour. The plate is dried for one hour at 37° C. and 60 μL Microscint Scintillant is added to each well. The CPM per well is measured on a Packard Top Count NXT. Ki values are determined in nM. The Ki is calculated from the IC50 (i.e. the concentration of competing ligand which displaces 50% of the specific binding of the radioligand). CPM values are expressed as % specific binding and plotted vs compound concentration. A curve is fitted using a four-parameter logistic fit and the IC50 value is determined. The Ki is calculated from this using the Cheng-Prusoff equation: […]=IC50/1+(L/Kd) where L=concentration of free radioligand used in the assay, and Kd is the dissociation constant of the radioligand for the receptor. L is determined for each experiment by counting an aliquot of the diluted radioligand (corresponding to that added to each well) and the Kd has previously been determined under identical conditions for this cell line/radioligand.", "units": {"Ki": "nM"}, "values": [
      {"smiles": "c1ccc2c(c1)ncn2Cc1ccc(-c2nc(CN3CCCC3)co2)cc1", "note": "[Example 6B, 1-{4-[4-(Pyrrolidin-1-ylmethyl)-1,3-oxazol-2-yl]benzyl}-1H-benzimidazole Hydrochloride]", "Ki": "≤ 10"},
      {"smiles": "c1ccc2c(c1)ncn2Cc1ccc(-c2nc(CN3CCCCC3)co2)cc1", "note": "[Example 7, 1-{4-[4-(piperidin-1-ylmethyl)-1,3-oxazol-2-yl]benzyl}-1H-benzimidazole]", "Ki": "≤ 10"},
      {"smiles": "CN(C)Cc1coc(-c2ccc(Cn3cnc4ccccc43)cc2)n1", "note": "[Example 8]", "Ki": "10.1 to 25"},
      {"smiles": "c1ccc2c(c1)ncn2Cc1ccc(-c2nc(CN3CCOCC3)co2)cc1", "note": "[Example 10, 1-{4-[4-(morpholin-4-ylmethyl)-1,3-oxazol-2-yl]benzyl}-1H-benzimidazole]", "Ki": "> 100"},
      {"smiles": "CN1CCN(Cc2coc(-c3ccc(Cn4cnc5ccccc54)cc3)n2)CC1", "note": "[Example 11]", "Ki": "> 100"},
      {"smiles": "CCN(CC)Cc1coc(-c2ccc(Cn3cnc4ccccc43)cc2)n1", "note": "[Example 12, N-({2-[4-(1H-benzimidazol-1-ylmethyl)phenyl]-1,3-oxazol-4-yl}methyl)-N-ethylethanamine]", "Ki": "≤ 10"},
      {"smiles": "CC1CCCN1Cc1coc(-c2ccc(Cn3cnc4ccccc43)cc2)n1", "note": "(centres unmarked) [Example 13, 1-(4-{4-[(2-methylpyrrolidin-1-yl)methyl]-1,3-oxazol-2-yl}benzyl)-1H-benzimidazole]", "Ki": "≤ 10"},
      {"smiles": "c1ccc2c(c1)ncn2Cc1ccc(-c2nc(CN3CCCCCC3)co2)cc1", "note": "[Example 14, 1-{4-[4-(azepan-1-ylmethyl)-1,3-oxazol-2-yl]benzyl}-1H-benzimidazole]", "Ki": "≤ 10"},
      {"smiles": "CC1CCCCN1Cc1coc(-c2ccc(Cn3cnc4ccccc43)cc2)n1", "note": "(centres unmarked) [Example 15, 1-(4-{4-[(2-methylpiperidin-1-yl)methyl]-1,3-oxazol-2-yl}benzyl)-1H-benzimidazole]", "Ki": "50.1 to 100"},
      {"smiles": "CC1CCCN(Cc2coc(-c3ccc(Cn4cnc5ccccc54)cc3)n2)C1", "note": "(centres unmarked) [Example 16]", "Ki": "≤ 10"},
      {"smiles": "CC1CCN(Cc2coc(-c3ccc(Cn4cnc5ccccc54)cc3)n2)CC1", "note": "[Example 17]", "Ki": "≤ 10"},
      {"smiles": "OC[C@@H]1CCCN1Cc1coc(-c2ccc(Cn3cnc4ccccc43)cc2)n1", "note": "[Example 18, [(2S)-1-({2-[4-(1H-benzimidazol-1-ylmethyl)phenyl]-1,3-oxazol-4-yl}methyl)pyrrolidin-2-yl]methanol]", "Ki": "10.1 to 25"},
      {"smiles": "C[C@@H]1CCCN1Cc1coc(-c2ccc(Cn3cnc4ccccc43)cc2)n1", "note": "[Example 19, 1-[4-(4-{[(2R)-2-methylpyrrolidin-1-yl]methyl}-1,3-oxazol-2-yl)benzyl]-1H-benzimidazole]", "Ki": "≤ 10"},
      {"smiles": "C[C@H]1CCCN1Cc1coc(-c2ccc(Cn3cnc4ccccc43)cc2)n1", "note": "[Example 20, 1-[4-(4-{[(2S)-2-methylpyrrolidin-1-yl]methyl}-1,3-oxazol-2-yl)benzyl]-1H-benzimidazole]", "Ki": "≤ 10"},
      {"smiles": "F[C@@H]1CCN(Cc2coc(-c3ccc(Cn4cnc5ccccc54)cc3)n2)C1", "note": "[Example 21, 1-[4-(4-{[(3R)-3-fluoropyrrolidin-1-yl]methyl}-1,3-oxazol-2-yl)benzyl]-1H-benzimidazole]", "Ki": "10.1 to 25"},
      {"smiles": "F[C@H]1CCN(Cc2coc(-c3ccc(Cn4cnc5ccccc54)cc3)n2)C1", "note": "[Example 22, 1-[4-(4-{[(3S)-3-fluoropyrrolidin-1-yl]methyl}-1,3-oxazol-2-yl)benzyl]-1H-benzimidazole]", "Ki": "10.1 to 25"},
      {"smiles": "Cc1oc(-c2ccc(Cn3cnc4ccccc43)cc2)nc1CN1CCCC1", "note": "[Example 28, 1-{4-[5-methyl-4-(pyrrolidin-1-ylmethyl)-1,3-oxazol-2-yl]benzyl}-1H-benzimidazole]", "Ki": "≤ 10"},
      {"smiles": "Brc1oc(-c2ccc(Cn3cnc4ccccc43)cc2)nc1CN1CCCC1", "note": "[Example 29, 1-{4-[5-bromo-4-(pyrrolidin-1-ylmethyl)-1,3-oxazol-2-yl]benzyl}-1H-benzimidazole]", "Ki": "25.1 to 50"},
      {"smiles": "c1ccc2c(c1)ncn2-c1ccc(-c2nc(CN3CCCC3)co2)cc1", "note": "[Example 36, 1-{4-[4-(pyrrolidin-1-ylmethyl)-1,3-oxazol-2-yl]phenyl}-1H-benzimidazole]", "Ki": "≤ 10"},
      {"smiles": "c1ccc2c(c1)ncn2-c1ccc(-c2nc(CN3CCCCC3)co2)cc1", "note": "[Example 37]", "Ki": "≤ 10"},
      {"smiles": "CN(C)Cc1coc(-c2ccc(-n3cnc4ccccc43)cc2)n1", "note": "[Example 38]", "Ki": "10.1 to 25"},
      {"smiles": "CCN(C)Cc1coc(-c2ccc(-n3cnc4ccccc43)cc2)n1", "note": "[Example 39]", "Ki": "10.1 to 25"},
      {"smiles": "c1ccc2c(c1)ncn2-c1ccc(-c2nc(CN3CCOCC3)co2)cc1", "note": "[Example 40]", "Ki": "> 100"},
      {"smiles": "CN1CCN(Cc2coc(-c3ccc(-n4cnc5ccccc54)cc3)n2)CC1", "note": "[Example 41, 1-(4-{4-[(4-methylpiperazin-1-yl)methyl]-1,3-oxazol-2-yl}phenyl)-1H-benzimidazole]", "Ki": "> 100"},
      {"smiles": "CCN(CC)Cc1coc(-c2ccc(-n3cnc4ccccc43)cc2)n1", "note": "[Example 42, N-({2-[4-(1H-benzimidazol-1-yl)phenyl]-1,3-oxazol-4-yl}methyl)-N-ethylethanamine]", "Ki": "25.1 to 50"},
      {"smiles": "CC1CCCN1Cc1coc(-c2ccc(-n3cnc4ccccc43)cc2)n1", "note": "(centres unmarked) [Example 43, 1-(4-{4-[(2-methylpyrrolidin-1-yl)methyl]-1,3-oxazol-2-yl}phenyl)-1H-benzimidazole]", "Ki": "10.1 to 25"},
      {"smiles": "c1ccc2c(c1)ncn2-c1ccc(-c2nc(CN3CCCCCC3)co2)cc1", "note": "[Example 44, 1-{4-[4-(azepan-1-ylmethyl)-1,3-oxazol-2-yl]phenyl}-1H-benzimidazole]", "Ki": "25.1 to 50"},
      {"smiles": "CC1CCCCN1Cc1coc(-c2ccc(-n3cnc4ccccc43)cc2)n1", "note": "(centres unmarked) [Example 45, 1-(4-{4-[(2-methylpiperidin-1-yl)methyl]-1,3-oxazol-2-yl}phenyl)-1H-benzimidazole]", "Ki": "≤ 10"},
      {"smiles": "CC1CCCN(Cc2coc(-c3ccc(-n4cnc5ccccc54)cc3)n2)C1", "note": "(centres unmarked) [Example 46, 1-(4-{4-[(3-methylpiperidin-1-yl)methyl]-1,3-oxazol-2-yl}phenyl)-1H-benzimidazole]", "Ki": "≤ 10"},
      {"smiles": "CC1CCN(Cc2coc(-c3ccc(-n4cnc5ccccc54)cc3)n2)CC1", "note": "[Example 47, 1-(4-{4-[(4-methylpiperidin-1-yl)methyl]-1,3-oxazol-2-yl}phenyl)-1H-benzimidazole]", "Ki": "≤ 10"},
      {"smiles": "OC[C@@H]1CCCN1Cc1coc(-c2ccc(-n3cnc4ccccc43)cc2)n1", "note": "[Example 48, [(2S)-1-({2-[4-(1H-benzimidazol-1-yl)phenyl]-1,3-oxazol-4-yl}methyl)pyrrolidin-2-yl]methanol]", "Ki": "≤ 10"},
      {"smiles": "Cn1c(-c2ccc(-c3nc(CN4CCCC4)co3)cc2)nc2ccccc21", "note": "[Example 51, 1-methyl-2-{4-[4-(pyrrolidin-1-ylmethyl)-1,3-oxazol-2-yl]phenyl}-1H-benzimidazole]", "Ki": "≤ 10"},
      {"smiles": "Cn1c(-c2ccc(-c3nc(CN4CCCCC4)co3)cc2)nc2ccccc21", "note": "[Example 52, 1-methyl-2-{4-[4-(piperidin-1-ylmethyl)-1,3-oxazol-2-yl]phenyl}-1H-benzimidazole]", "Ki": "≤ 10"},
      {"smiles": "CCN(C)Cc1coc(-c2ccc(-c3nc4ccccc4n3C)cc2)n1", "note": "[Example 53, N-methyl-N-({2-[4-(1-methyl-1H-benzimidazol-2-yl)phenyl]-1,3-oxazol-4-yl}methyl)ethanamine]", "Ki": "≤ 10"},
      {"smiles": "CN(C)Cc1coc(-c2ccc(-c3nc4ccccc4n3C)cc2)n1", "note": "[Example 54, N,N-dimethyl-1-{2-[4-(1-methyl-1H-benzimidazol-2-yl)phenyl]-1,3-oxazol-4-yl}methanamine]", "Ki": "10.1 to 25"}
    ]}
  ]
}
